Molecules are shown by their SMILES.

The test system of assay [1] is α1β2 97-3,5-F2-Phe GABAA receptor. Briefly: GABA concentration-response, voltage-clamp in oocytes, β2 97-3,5-F2-Phe. Type of assay: cell-based, human.
For assay [2], the system named is α1β2 205-4-F-Phe GABAA receptor. Briefly: GABA concentration-response, voltage-clamp in oocytes, β2 205-4-F-Phe. Type of assay: cell-based, human.
In assay [3] the test system is α1β2 157-3,5-F2-Phe GABAA receptor. Briefly: GABA concentration-response, voltage-clamp in oocytes, β2 157-3,5-F2-Phe. Type of assay: cell-based, human.
In assay [4] the test system is α1 65-3,4,5-F3-Phe β2 GABAA receptor. Briefly: GABA concentration-response, voltage-clamp in oocytes, α1 65-3,4,5-F3-Phe. Type of assay: cell-based, human.
Assay [5] relates to α1β2 205-3,5-F2-Phe GABAA receptor. Briefly: GABA concentration-response, voltage-clamp in oocytes, β2 205-3,5-F2-Phe. Type of assay: cell-based, human.
The subject of assay [6] is α1β2 97-3,4,5-F3-Phe GABAA receptor. Briefly: GABA concentration-response, voltage-clamp in oocytes, β2 97-3,4,5-F3-Phe. Type of assay: cell-based, human.
Assay [7] deals with α1β2 157-4-Me-Phe GABAA receptor. Briefly: GABA concentration-response, voltage-clamp in oocytes, β2 157-4-Me-Phe. Type of assay: cell-based, human.
For assay [8], the system named is α1β2 157-3,4,5-F3-Phe GABAA receptor. Description: GABA concentration-response, voltage-clamp in oocytes, β2 157-3,4,5-F3-Phe. Type of assay: cell-based, human.
Assay [9] relates to α1β2 205-3,4,5-F3-Phe GABAA receptor. Briefly: GABA concentration-response, voltage-clamp in oocytes, β2 205-3,4,5-F3-Phe. Type of assay: cell-based, human.
The target of assay [10] is GABAA receptor α1Phe64 (α1Phe65 by human numbering) to Leu mutant. Particulars: cited from earlier work.
Assay [11] relates to GABAA receptors with phenylalanine mutations at β2Tyr157 and β2Tyr205. Particulars: phenylalanine mutants vs unmutated; ref Amin and Weiss, 1993; cited from earlier work.

Regarding `NCCCC(=O)O` [GABA], the “nH (Hill coefficient)” value was found to be 1.1 in [1]; 1.9 in [2]; 2.0 in assay [3]; 1.5 in assay [4]; 1.9 in assay [5]; 1.9 in assay [6]. The “nH (Hill coefficient)” value in assay [7] is 0.8; in assay [8], 1.7; in assay [9], 2.5.
Take `CN1CCc2cc3c(cc2[C@H]1[C@@H]1OC(=O)c2c1ccc1c2OCO1)OCO3` [bicuculline]: the “change of IC50 on mutation” value in [10] was “increasing by similar amounts”.
Turning to `CCCC(C)C1(CC)C(=O)NC(=O)NC1=O` (centres unmarked) [pentobarbital], in assay [11], the “functional response on activation of the receptors” value is “no change in functional response”.
